Data on 24 compounds can be found in ChEMBL document CHEMBL3774389, “C-3 benzoic acid derivatives of C-3 deoxybetulinic acid and deoxybetulin as HIV-1 maturation inhibitors” (Bioorg Med Chem, 2016).

In general, CC50 refers to the concentration giving 50% cytotoxicity. In general, EC50 refers to the concentration giving half of the maximal effect.

Data set [1] in a line: Cytotoxicity against human MT2 cells assessed as cell viability by redox dye assay. In kind it is cell-based.
In data set [2] the test system is Human immunodeficiency virus 1. The experiment in a line: Antiviral activity against HIV1 containing gag V370A mutant infected in human MT2 cells after 4 to 5 days by luciferase report gene based multiple cycle drug susceptibility assay. Format: functional, organism-based. As to conditions: Human immunodeficiency virus 1, MT2.
Data set [3] has as its system Human immunodeficiency virus 1. Description: Antiviral activity against wild type HIV1 NLRepRlucP373S infected in human MT2 cells after 4 to 5 days by luciferase report gene based multiple cycle drug susceptibility assay. Format: functional, organism-based. Particulars: Human immunodeficiency virus 1, NLRepRlucP373S.
The subject of data set [4] is Human immunodeficiency virus 1. Description: Antiviral activity against wild type HIV1 NLRepRlucP373S infected in human MT2 cells after 4 to 5 days in presence of 15 mg/ml HSA by luciferase report gene based multiple cycle drug susceptibility assay. In kind it is functional, organism-based. As to conditions: Human immunodeficiency virus 1, NLRepRlucP373S.

Turning to `C=C(C)[C@@H]1CC[C@]2(C(=O)O)CC[C@]3(C)[C@H](CC[C@@H]4[C@@]5(C)CC=C(c6ccc(NC(=O)CCC(=O)O)cc6)C(C)(C)[C@@H]5CC[C@]43C)[C@@H]12`, the CC50 in data set [1] came out at 7730 nM. The EC50 was found to be 1570 nM in data set [2] and 1470 nM in data set [3].

In the case of `C=C(C)[C@@H]1CC[C@]2(C(=O)O)CC[C@]3(C)[C@H](CC[C@@H]4[C@@]5(C)CC=C(c6cccc(S(=O)(=O)NC)c6)C(C)(C)[C@@H]5CC[C@]43C)[C@@H]12`, in data set [1], the CC50 came to 13000 nM. In data set [3], this compound came in with a half-maximal effective concentration (EC50) of 1230 nM.

`C=C(C)[C@@H]1CC[C@]2(C(=O)O)CC[C@]3(C)[C@H](CC[C@@H]4[C@@]5(C)CC=C(c6cccc(NS(C)(=O)=O)c6)C(C)(C)[C@@H]5CC[C@]43C)[C@@H]12`: the CC50 in data set [1] was 12700 nM. Besides, in data set [3], the midpoint of the response, the EC50, lay at 2130 nM.

Consider `C=C(C)[C@@H]1CC[C@]2(C(=O)O)CC[C@]3(C)[C@H](CC[C@@H]4[C@@]5(C)CC=C(c6ccc(-c7cnc8ccccc8c7C(=O)O)cc6)C(C)(C)[C@@H]5CC[C@]43C)[C@@H]12`, for which, in data set [1], the CC50 stood at 15900 nM. The compound also had an EC50 in data set [3] of 3600 nM.

As for `C=C(C)[C@@H]1CC[C@]2(C(=O)O)CC[C@]3(C)[C@H](CC[C@@H]4[C@@]5(C)CC=C(c6ccc(/C=C/C(=O)O)cc6)C(C)(C)[C@@H]5CC[C@]43C)[C@@H]12`, the CC50 in data set [1] was more than 8000 nM. In data set [3], this compound displayed an EC50 of 734 nM.

In the case of `C=C(C)[C@@H]1CC[C@]2(CO)CC[C@]3(C)[C@H](CC[C@@H]4[C@@]5(C)CC=C(c6ccc([N+](=O)[O-])cc6)C(C)(C)[C@@H]5CC[C@]43C)[C@@H]12`, in data set [1], the CC50 was determined as 20000 nM. In addition, the EC50 in data set [4], in data set [2] and in data set [3] was more than 4000 nM throughout.

In the case of `C=C(C)[C@@H]1CC[C@]2(C(=O)O)CC[C@]3(C)[C@H](CC[C@@H]4[C@@]5(C)CC=C(c6ccc(C#N)cc6)C(C)(C)[C@@H]5CC[C@]43C)[C@@H]12`, in data set [1], the CC50 turned out to be 4450 nM. The same compound came in with an EC50 in data set [3] of more than 1600 nM.

On to `C=C(C)[C@@H]1CC[C@]2(C(=O)O)CC[C@]3(C)[C@H](CC[C@@H]4[C@@]5(C)CC=C(c6ccn(CC(=O)O)n6)C(C)(C)[C@@H]5CC[C@]43C)[C@@H]12`, for which, in data set [1], the CC50 is more than 30000 nM. Also, the concentration for a half-maximal effect (EC50) is more than 3000 nM in data set [2] and 167 nM in data set [3].

Turning to `C=C(C)[C@@H]1CC[C@]2(C(=O)O)CC[C@]3(C)[C@H](CC[C@@H]4[C@@]5(C)CC=C(c6ccc(C7(C(=O)O)CC7)cc6)C(C)(C)[C@@H]5CC[C@]43C)[C@@H]12`, in data set [1], the cytotoxic concentration (CC50) is more than 8000 nM. The half-maximal effective concentration (EC50) was found to be 633 nM in data set [2] and 215 nM in data set [3].

In the case of `C=C(C)[C@@H]1CC[C@]2(CO)CC[C@]3(C)[C@H](CC[C@@H]4[C@@]5(C)CC=C(c6ccc(NS(C)(=O)=O)cc6)C(C)(C)[C@@H]5CC[C@]43C)[C@@H]12`, the CC50 in data set [1] turned out to be 8820 nM. Also, the EC50 in data set [4], in data set [2] and in data set [3] was more than 1600 nM each time.

Turning to `C=C(C)[C@@H]1CC[C@]2(CO)CC[C@]3(C)[C@H](CC[C@@H]4[C@@]5(C)CC=C(c6ccc(C(=O)O)c(C(=O)O)c6)C(C)(C)[C@@H]5CC[C@]43C)[C@@H]12`, the CC50 in data set [1] is more than 20000 nM. Also, the EC50 in data set [2] was 212 nM; in data set [3], 38 nM.

On to `C=C(C)[C@@H]1CC[C@]2(C(=O)O)CC[C@]3(C)[C@H](CC[C@@H]4[C@@]5(C)CC=C(c6ccc(S(C)(=O)=O)cc6)C(C)(C)[C@@H]5CC[C@]43C)[C@@H]12`, for which the CC50 in data set [1] is 9720 nM. Also, it took 2520 nM to reach a half-maximal effect in data set [3] (EC50).

Regarding `C=C(C)[C@@H]1CC[C@]2(C(=O)O)CC[C@]3(C)[C@H](CC[C@@H]4[C@@]5(C)CC=C(c6ccc(C(=O)O)s6)C(C)(C)[C@@H]5CC[C@]43C)[C@@H]12`, in data set [1], the CC50 was found to be 790 nM. Also, the 50% effective concentration (EC50) is more than 2000 nM in data set [2] and 59 nM in data set [3].

`C=C(C)[C@@H]1CC[C@]2(CO)CC[C@]3(C)[C@H](CC[C@@H]4[C@@]5(C)CC=C(c6ccc(-c7nn[nH]n7)cc6)C(C)(C)[C@@H]5CC[C@]43C)[C@@H]12`: the CC50 in data set [1] came out at 34300 nM. Further, the EC50 was more than 4000 nM in data set [2] and 3400 nM in data set [3].

Take `C=C(C)[C@@H]1CC[C@]2(C(=O)O)CC[C@]3(C)[C@H](CC[C@@H]4[C@@]5(C)CC=C(c6cccc(CCC(=O)O)c6)C(C)(C)[C@@H]5CC[C@]43C)[C@@H]12`: the CC50 in data set [1] is 1830 nM. For the same compound, the EC50 in data set [3] was 571 nM.

As to `C=C(C)[C@@H]1CC[C@]2(C(=O)O)CC[C@]3(C)[C@H](CC[C@@H]4[C@@]5(C)CC=C(c6cccc(C(=O)O)c6)C(C)(C)[C@@H]5CC[C@]43C)[C@@H]12`, the CC50 in data set [1] amounted to 13800 nM. In data set [3], this compound returned an EC50 of more than 8000 nM.

With `C=C(C)[C@@H]1CC[C@]2(C(=O)O)CC[C@]3(C)[C@H](CC[C@@H]4[C@@]5(C)CC=C(c6ccc(O)cc6)C(C)(C)[C@@H]5CC[C@]43C)[C@@H]12`, the CC50 in data set [1] came out at 13400 nM. The results for the EC50 in data set [4] and in data set [3] were more than 8000 nM and 308 nM, respectively.

Consider `C=C(C)[C@@H]1CC[C@]2(CO)CC[C@]3(C)[C@H](CC[C@@H]4[C@@]5(C)CC=C(c6ccc(C(=O)O)cn6)C(C)(C)[C@@H]5CC[C@]43C)[C@@H]12`, for which the CC50 in data set [1] turned out to be 4300 nM. Moreover, the EC50 in data set [2] is more than 2000 nM; in data set [3] it was 503 nM.

Regarding `C=C(C)[C@@H]1CC[C@]2(C(=O)O)CC[C@]3(C)[C@H](CC[C@@H]4[C@@]5(C)CC=C(c6ccc(CCC(=O)O)cc6)C(C)(C)[C@@H]5CC[C@]43C)[C@@H]12`, the CC50 in data set [1] came to 6550 nM. Also, the EC50 in data set [3] is 682 nM.

In the case of `C=C(C)[C@@H]1CC[C@]2(C(=O)O)CC[C@]3(C)[C@H](CC[C@@H]4[C@@]5(C)CC=C(c6cccc(-c7nn[nH]n7)c6)C(C)(C)[C@@H]5CC[C@]43C)[C@@H]12`, the CC50 in data set [1] amounted to 10500 nM. Moreover, in data set [3], the EC50 was more than 8000 nM.

For the compound `C=C(C)[C@@H]1CC[C@]2(CO)CC[C@]3(C)[C@H](CC[C@@H]4[C@@]5(C)CC=C(c6cc(C(=O)O)[nH]n6)C(C)(C)[C@@H]5CC[C@]43C)[C@@H]12`, the cytotoxic concentration (CC50) in data set [1] is 570 nM. Also, the values for the EC50 in data set [2] and in data set [3] were 348 nM and 61 nM, respectively.

With `C=C(C)[C@@H]1CC[C@]2(C(=O)O)CC[C@]3(C)[C@H](CC[C@@H]4[C@@]5(C)CC=C(c6ccc(C(=O)NC)cc6)C(C)(C)[C@@H]5CC[C@]43C)[C@@H]12`, in data set [1], the CC50 came out at 22600 nM. For the same compound, the response in data set [3] was half-maximal at 1600 nM (EC50).

In the case of `C=C(C)[C@@H]1CC[C@]2(C(=O)O)CC[C@]3(C)[C@H](CC[C@@H]4[C@@]5(C)CC=C(c6ccccc6CCC(=O)O)C(C)(C)[C@@H]5CC[C@]43C)[C@@H]12`, the CC50 in data set [1] is 5030 nM. Besides, in data set [3], it took 3200 nM to reach a half-maximal effect (EC50).

Consider `C=C(C)[C@@H]1CC[C@]2(CO)CC[C@]3(C)[C@H](CC[C@@H]4[C@@]5(C)CC=C(c6csc(C(=O)O)c6)C(C)(C)[C@@H]5CC[C@]43C)[C@@H]12`, for which the CC50 in data set [1] was determined as 14100 nM. The figures for the EC50 in data set [2] and in data set [3] were more than 2000 nM and 380 nM, respectively.
